Measured values from ChEMBL document CHEMBL1139752, “New rifabutin analogs: synthesis and biological activity against Mycobacterium tuberculosis” (2006).
Converted amounts (≈) assume the structure as drawn.

What was measured:
Type in all cases: functional
[1] = system: Mycobacterium tuberculosis; assay: Antimycobacterial activity against Mycobacterium tuberculosis H37 Rv ATCC 27294
[2] = system: Mycobacterium tuberculosis; assay: Antimycobacterial activity against rifampicin and rifabutin sensitive Mycobacterium tuberculosis
[3] = system: Mycobacterium avium; assay: Antimycobacterial activity against Mycobacterium avium-intracellulare complex measured as susceptibility at 1 ug/mL
[4] = system: Mycobacterium kansasii; assay: Antimycobacterial activity against Mycobacterium kansasii measured as susceptibility at 1 ug/mL

| SMILES | MIC [1] [µg/mL] | MIC [2] [µg/mL] | Activity [3] | Activity [4] [%] |
| --- | --- | --- | --- | --- |
| C=CCCN1[C@@H](c2ccccc2)C[C@@]2(C[C@H]1c1ccccc1)N=C1C(=C3NC(=O)/C(C)=C\C=C\[C@H](C)[C@H](O)[C@@H](C)[C@H](O)[C@H](C)[C@H](OC(C)=O)[C@H](C)[C@@H](OC)/C=C/O[C@@]4(C)Oc5c(C)c(O)c(c1c5C4=O)C3=O)N2 | 0.02 (≈ 0.0201 µM) | 0.02 (≈ 0.0201 µM) | 80% | 100 |
| COc1ccc([C@@H]2C[C@]3(C[C@H](c4ccc(OC)cc4)N2)N=C2C(=C4NC(=O)/C(C)=C\C=C\[C@H](C)[C@H](O)[C@@H](C)[C@H](O)[C@H](C)[C@H](OC(C)=O)[C@H](C)[C@@H](OC)/C=C/O[C@@]5(C)Oc6c(C)c(O)c(c2c6C5=O)C4=O)N3)cc1 | 0.02 (≈ 0.0199 µM) | 0.02 (≈ 0.0199 µM) | 60% | 100 |
| CO[C@H]1/C=C/O[C@@]2(C)Oc3c(C)c(O)c4c(c3C2=O)C2=N[C@@]3(C[C@@H](c5ccccc5)N[C@@H](c5ccccc5)C3)NC2=C(NC(=O)/C(C)=C\C=C\[C@H](C)[C@H](O)[C@@H](C)[C@H](O)[C@H](C)[C@H](OC(C)=O)[C@@H]1C)C4=O | 0.02 (≈ 0.0212 µM) | 0.02 (≈ 0.0212 µM) | 100% | 100 |
| CO[C@H]1/C=C/O[C@@]2(C)Oc3c(C)c(O)c4c(O)c(c(/C=N/N5CCN(C)CC5)c(O)c4c3C2=O)NC(=O)/C(C)=C\C=C\[C@H](C)[C@H](O)[C@@H](C)[C@@H](O)[C@@H](C)[C@H](OC(C)=O)[C@@H]1C [RIFAMPIN] | 0.02 (≈ 0.0243 µM) | 0.02 (≈ 0.0243 µM) | 0% | 100 |
| CCCCN1[C@@H](c2ccccc2)C[C@@]2(C[C@H]1c1ccccc1)N=C1C(=C3NC(=O)/C(C)=C\C=C\[C@H](C)[C@H](O)[C@@H](C)[C@H](O)[C@H](C)[C@H](OC(C)=O)[C@H](C)[C@@H](OC)/C=C/O[C@@]4(C)Oc5c(C)c(O)c(c1c5C4=O)C3=O)N2 | 0.02 (≈ 0.02 µM) | 0.02 (≈ 0.02 µM) | 40% | 100 |
| C=CCN1[C@@H](c2ccccc2)C[C@@]2(C[C@H]1c1ccccc1)N=C1C(=C3NC(=O)/C(C)=C\C=C\[C@H](C)[C@H](O)[C@@H](C)[C@H](O)[C@H](C)[C@H](OC(C)=O)[C@H](C)[C@@H](OC)/C=C/O[C@@]4(C)Oc5c(C)c(O)c(c1c5C4=O)C3=O)N2 | 0.02 (≈ 0.0203 µM) | 0.02 (≈ 0.0203 µM) | <=40% | 100 |
| CO[C@H]1/C=C/O[C@@]2(C)Oc3c(C)c(O)c4c(c3C2=O)C2=N[C@@]3(C[C@@H](c5ccc(F)cc5)N[C@@H](c5ccc(F)cc5)C3)NC2=C(NC(=O)/C(C)=C\C=C\[C@H](C)[C@H](O)[C@@H](C)[C@H](O)[C@H](C)[C@H](OC(C)=O)[C@@H]1C)C4=O | 0.02 (≈ 0.0204 µM) | 0.02 (≈ 0.0204 µM) | 100% | 100 |
| CO[C@H]1/C=C/O[C@@]2(C)Oc3c(C)c(O)c4c(c3C2=O)C2=NC3(CCN(CC(C)C)CC3)NC2=C(NC(=O)/C(C)=C\C=C\[C@H](C)[C@H](O)[C@@H](C)[C@@H](O)[C@@H](C)[C@H](OC(C)=O)[C@@H]1C)C4=O [RIFABUTIN] | 0.02 (≈ 0.0236 µM) | 0.02 (≈ 0.0236 µM) | 20% | 100 |
| CO[C@H]1/C=C/O[C@@]2(C)Oc3c(C)c(O)c4c(c3C2=O)C2=N[C@]3(C[C@@H](c5ccccc5)N[C@@H](c5ccccc5)C3)NC2=C(NC(=O)/C(C)=C\C=C\[C@H](C)[C@H](O)[C@@H](C)[C@H](O)[C@H](C)[C@H](OC(C)=O)[C@@H]1C)C4=O | 0.02 (≈ 0.0212 µM) | 0.02 (≈ 0.0212 µM) | 100% | 100 |
